What was measured:
Format in all cases: cell-based
[1] = system: human cultivated endothelial cells; assay: Absorption of FITC-marked decoy oligonucleotide, fluorescence microscopy; conditions: for effect of transport inhibitors on accumulation/absorption of decoy oligonucleotides: human endothelial cells, methotrexate by comparison with folic acid; for concentration of the nucleic acids in the cell on co-incubation with nonsteroidal anti-inflammatory drug: 100 μmol/l co-incubation, 1 hour (FIG. 6)
Experimental: Human endothelial cells were isolated from umbilical veins by treatment with 1.6 U/ml dispase in Hepes-modified tyrode solution for 30 minutes at 37° C. and cultivated on gelatine-coated 6-well tissue-culture dishes (2 mg/ml gelatine in 0.1 M HCl for 30 minutes at room temperature) in 1.5 ml M199 medium (Gibco Life Technologies, Karlsruhe, Germany), containing 20% foetal calf serum, 50 U/ml penicillin, 50 μg/ml streptomycin, 10 U/ml nystatin, 5 mM HEPES and 5 mM TES, 1 μg/ml heparin and 40 μg/ml endothelial growth factor. […] Before the start of the experiment, the endothelial cells cultivated in the 24-well cell-culture plates were washed once with Ringer's solution at 37° C. (composition: 145 mmol/l Na^+, 5 mmol/l K^+, 156 mmol/l Cl^−, 2 mmol/l Ca^2+, 1 mmol/l Mg^2+, 10 mmol/l Hepes, 10 mmol/l D-glucose, pH 7.35). […] After an incubation period of up to 180 min at 37° C. and in ambient air, the cells were washed three times with 1 ml warm, non-modified Ringer's solution. The fluorescence intensities were recorded with the MicroMax CCD-camera (Princeton Instruments Inc., Trenton, N.J., USA), which was coupled to an Axiovert S100 TV microscope (Zeiss, Göttingen, Germany), with an excitation wavelength of 494 nm, an emission wavelength of 518 nm and 200× magnification. The fluorescence images (one image was taken for each portion of the experimental mixture) and the subsequent quantification was implemented using the MetaMorph V3.0 Software (Universal Imaging West Chester, Pa., USA). For the quantification, all fluorescence images for an experimental mixture were initially calibrated to an identical level of brightness and contrast. Following this, the software was used to determine an overall brightness integrated across the individual pixels for each image as a measure for the fluorescence intensity, thereby representing the intracellular concentration of the decoy oligonucleotide.

[2] = system: reduced folic-acid-carrier; assay: Western-blot analysis of reduced folic-acid-carrier protein expression after antisense oligonucleotide treatment; conditions: human cultivated endothelial cells; antisense 0.5 μmol/l with lipofectin; n=5
Experimental: (§1) For an antisense mixture, 3% lipofectin (v/v) (Gibco Life Technologies) was added to 1 ml culture medium and incubated for 60 minutes at room temperature (RT). Following this, the corresponding antisense or control oligonucleotide (Eurogentec, Köln, Germany) was added in a final concentration of 0.5 μmol/l and incubated for a further 30 minutes at room temperature. At the start of the experiments, the corresponding quantities of heparin and endothelial growth factor were added, and the conventional cell culture medium of the endothelial cell culture was replaced by the antisense lipofectin medium. After 6 hours, the antisense lipofectin medium was removed and replaced by fresh cell culture medium; the Western-blot analysis and/or the fluorescence-microscopic analysis of the decoy-oligonucleotide absorption was carried out 24 hours after the transfection. […]
(§2) The human umbilical vein endothelial cells were opened by freezing successively five times in liquid nitrogen and thawing at 37° C. […] CD40 protein was detected with a polyclonal anti-human antibody (Research Diagnostics Inc., Flanders, N.J., USA). […]

caveolin-1 = assay: Western-blot analysis of caveolin-1 protein expression after antisense oligonucleotide treatment; conditions: human cultivated endothelial cells; antisense 0.5 μmol/l with lipofectin; n=3
Experimental: as §1, §2

[3] = FITC-marked C/EBP decoy 10 μmol/l

Compound: O=S(=O)(O)c1cc(N=C=S)ccc1C=Cc1ccc(N=C=S)cc1S(=O)(=O)O [DIDS, 4,4′-diisothiocyano-2,2′-stilben-disulfonic acid]
- effect of transport inhibitors on accumulation/absorption of decoy oligonucleotides [1]: high sensitivity

Compound: CC(C(=O)O)c1ccc(-c2ccccc2)c(F)c1 (stereo not drawn) [flurbiprofen]
- concentration of the nucleic acids in the cell on co-incubation with nonsteroidal anti-inflammatory drug [1, 3]: significantly increased

Compound: CCCN(CCC)S(=O)(=O)c1ccc(C(=O)O)cc1 [probenicid]
- effect of transport inhibitors on accumulation/absorption of decoy oligonucleotides [1]: probenicid-sensitive

Compound: 5′-C*A*A*A*GG*T*A*GC*A*C*A*CG*A*G-3′
- protein expression of the reduced folic-acid-carrier [2]: 33±10 % of the control
- inhibition of the decoy-oligonucleotide absorption ([1]; after antisense reduction of hFRC protein, FITC-marked C/EBP decoy 10 μmol/l, 1 hour (FIG. 4)): 45%

Compound: 5′-A*T*G*TCCCTCCGAGT*C*T*A-3′ [antisense oligonucleotide for caveolin-1]
- protein expression of caveolin-1 (caveolin-1): 37±10 % of the control
- effect on absorption of the decoy oligonucleotide ([1]; after inhibition of caveolin-1 expression, FITC-marked C/EBP decoy 10 μmol/l, 1 hour (FIG. 2)): significant restricttion

Compound: CC(C(=O)O)c1ccc(N2Cc3ccccc3C2=O)cc1 (stereo not drawn) [indoprofen]
- concentration of the nucleic acids in the cell on co-incubation with nonsteroidal anti-inflammatory drug [1, 3]: significantly increased

Compound: CN(Cc1cnc2nc(N)nc(N)c2n1)c1ccc(C(=O)N[C@@H](CCC(=O)O)C(=O)O)cc1 [methotrexate]
- effect of transport inhibitors on accumulation/absorption of decoy oligonucleotides [1]: considerably improved inhibition

Reference: US20060258601A1, “Formulation for inwardly transferring nucleic acids into eucaryotic cells” (priority 2002, published 2006)
